The subject of one data set is HIV-1 (H9/IIIB strain). The data set can be described thus: Multiple round HIV-1 infection assay (Viking assay) in MT4-GFP cells. Type of data set: cell-based. Conditions: Human immunodeficiency virus 1, IIIB, MT4-GFP cells infected with HIV-1 H9/IIIB, inhibition of reproductive ratio R0. In short, it runs like this: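 MT4-gag-GFP cells infected overnight with HIV-1 H9/IIIB at MOI ~0.01, then incubated with compound (10-point 3-fold dilutions, typically 8.4 μM–0.42 nM) in RPMI with 10% or 50% normal human serum. Green cells counted at ~48 and ~72 h; IC50 from inhibition of reproductive ratio R0, 4-parameter fit.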

Data set [1] in a line: Prodrug stability assay in bio-relevant media (FaSSIF with Pancreatin, simulated gastrointestinal tract conditions). Format: in vitro ADME. The settings on record: % parent prodrug remaining at 5 h vs 0 h, 37° C., 0.5 mg/mL Pancreatin in FaSSIF, HPLC area ratio. The protocol: Prodrug Stability Assay in Bio-Relevant Media
The following assay was employed to evaluate the stability of the prodrugs in simulated gastrointestinal tract conditions. Preparation of fasted state simulated intestinal fluid (FaSSIF) using Phares SIF Powder was carried out according to protocols from Phare Drug Delivery AG (Baselland, Switzerland). For sample preparation, 10 μL stock solutions (10 mM) of prodrug substance in DMSO was added to 990 μL of 0.5 mg/mL Pancreatin solution (Fisher CAS#8049-47-6) in FaSSIF. Two samples were prepared for each compound at initial. If the sample was clear solution at the beginning, ran one sample directly as initial by HPLC; if the sample was not clear at starting, diluted the sample by 100% ACN. Put the other sample under 37° C. and observed the sample at 5 h time-point. At 5 h time point, if the sample was clear solution then performed HPLC analysis directly; if it was not clear solution, diluted the sample by 100% ACN and assayed by HPLC. All the samples were vortexed for 3 min and observed before injection. For the diluted samples, the area will be multiplied by a factor when data analysis. The analysis was carried out with an Agilent 1100 series HPLC with autosampler. The column was usually a Poroshell 120 EC -C18, 4.6×50 mm, 2.7 μm. The flow rate was 1.8 mL/min, and the injection volume was 5 or 10 μL. UV detection was in the range 210-400 nm. The mobile phase consisted of solvent A (water plus 10 mM tetrabutylammonium bromide) and solvent B (acetonitrile) with a gradient of 90% solvent A at 0 min changing to 95% solvent B over 6 min, maintained for 1.5 min, then reverting to 90% solvent A over 1.6 min. The area of the parent in prodrug at 5h time point was divided by the area of the parent in prodrug at 0 h time point, to generate the % claimed parent ratio, which are summarized in Table 2 for GI Tract stability.

The mark [2] stands for this setting: 10% normal human serum, read-out: Viking, IC50 (10% NHS).
Setting [3] is: 50% normal human serum, read-out: Viking, IC50 (50% NHS).

The values that follow come from patent US10449208B2, “Antiviral prodrugs of tenofovir” (Merck Sharp & Dohme Corp., priority 2016, dated 2019).

Like-named read-outs stand apart in the source and are kept apart here.

Turning to `CCCCCOC(=O)C(C)(C)NP(=O)(CO[C@H](C)Cn1cnc2c(N)ncnc21)OCC(=O)OC1CCCC1` (stereo partly drawn) [Example 36, Pentyl 2-((((((R)-1-(6-amino-9H-purin-9-yl)propan-2-yl)oxy)methyl)(2-(cyclopentyloxy)-2-oxoethoxy)phosphoryl)amino)-2-methylpropanoate], the IC50 in the data set with HIV-1 (H9/IIIB strain) (setting [2]) was determined as 0.00239 µM; in the data set with HIV-1 (H9/IIIB strain) (setting [3]), 0.00604 µM. Further, the “GI Tract stability” value in data set [1] was 88.87%.

As to `CCCOC(=O)C(C)(C)NP(=O)(CO[C@H](C)Cn1cnc2c(N)ncnc21)OCC(=O)OC1CCCC1` (stereo partly drawn) [Example 38, Propyl 2-((((((R)-1-(6-amino-9H-purin-9-yl)propan-2-yl)oxy)methyl)(2-(cyclopentyloxy)-2-oxoethoxy)phosphoryl)amino)-2-methylpropanoate], the IC50 came to 0.00268 µM in the data set on HIV-1 (H9/IIIB strain) (setting [2]) and 0.00626 µM with HIV-1 (H9/IIIB strain) (setting [3]). In addition, in data set [1], the “GI Tract stability” value was 96.64%.

As to `CC(C)OC(=O)[C@H](C)OP(=O)(CO[C@H](C)Cn1cnc2c(N)ncnc21)NC(C)(C)C(=O)OCc1ccccc1` (stereo partly drawn) [Example 41, Benzyl 2-((((((R)-1-(6-amino-9H-purin-9-yl)propan-2-yl)oxy)methyl)(((S)-1-isopropoxy-1-oxopropan-2-yl)oxy)phosphoryl)amino)-2-methylpropanoate], the IC50 in the data set with HIV-1 (H9/IIIB strain) (setting [2]) was determined as 0.00287 µM; in the data set on HIV-1 (H9/IIIB strain) (setting [3]), 0.0125 µM. Further, the “GI Tract stability” value in data set [1] is recorded as 58.50%.

For `CC(C)OC(=O)COP(=O)(CO[C@H](C)Cn1cnc2c(N)ncnc21)NC1(C(=O)OC(C)C)CCCC1` (stereo partly drawn) [Example 45, Isopropyl 1-((((((R)-1-(6-amino-9H-purin-9-yl)propan-2-yl)oxy)methyl)(2-isopropoxy-2-oxoethoxy)phosphoryl)amino) cyclopentane-1-carboxylate], the IC50 in the data set on HIV-1 (H9/IIIB strain) (setting [2]) worked out at 0.0156 µM; in the data set on HIV-1 (H9/IIIB strain) (setting [3]), 0.0626 µM. For the same compound, in data set [1], the “GI Tract stability” value is given as 99.44%.

`CC(C)OC(=O)COP(=O)(CO[C@H](C)Cn1cnc2c(N)ncnc21)NC1(C(=O)OC(C)C)CC1` (stereo partly drawn) [Example 46, Isopropyl 1-((((((R)-1-(6-amino-9H-purin-9-yl)propan-2-yl)oxy)methyl)(2-isopropoxy-2-oxoethoxy)phosphoryl)amino) cyclopropane-1-carboxylate]: the IC50 is 0.386 µM in the data set on HIV-1 (H9/IIIB strain) (setting [2]) and 0.703 µM in the data set with HIV-1 (H9/IIIB strain) (setting [3]). In data set [1], the “GI Tract stability” value was 98.18%.

Turning to `CC(C)OC(=O)[C@H](C)OP(=O)(CO[C@H](C)Cn1cnc2c(N)ncnc21)NC1(C(=O)OC(C)C)CC1` (stereo partly drawn) [Example 47, Isopropyl 1-((((((R)-1-(6-amino-9H-purin-9-yl)propan-2-yl)oxy)methyl)(((S)-1-isopropoxy-1-oxopropan-2-yl)oxy)phosphoryl)amino) cyclopropane-1-carboxylate], the IC50 in the data set on HIV-1 (H9/IIIB strain) (setting [2]) was 0.0916 µM; with HIV-1 (H9/IIIB strain) (setting [3]), 0.209 µM. Moreover, the “GI Tract stability” value in data set [1] is 93.55%.

For the compound `CC(C)OC(=O)COP(=O)(CO[C@H](C)Cn1cnc2c(N)ncnc21)NC1(C(=O)OC(C)C)CCC1` (stereo partly drawn) [Example 49, Isopropyl 1-((((((R)-1-(6-amino-9H-purin-9-yl)propan-2-yl)oxy)methyl)(2-isopropoxy-2-oxoethoxy)phosphoryl)amino) cyclobutane-1-carboxylate], the IC50 in the data set with HIV-1 (H9/IIIB strain) (setting [2]) turned out to be 0.0196 µM; in the data set with HIV-1 (H9/IIIB strain) (setting [3]), 0.037 µM. For the same compound, the “GI Tract stability” value in data set [1] is 100.50%.

`CC(C)OC(=O)COP(=O)(CO[C@H](C)Cn1cnc2c(N)ncnc21)NC1(C(=O)OC(C)C)CCCCC1` (stereo partly drawn) [Example 51, Isopropyl 1-((((((R)-1-(6-amino-9H-purin-9-yl)propan-2-yl)oxy)methyl)(2-isopropoxy-2-oxoethoxy)phosphoryl)amino) cyclohexane-1-carboxylate]: the values for the IC50 with HIV-1 (H9/IIIB strain) (setting [2]) and in the data set on HIV-1 (H9/IIIB strain) (setting [3]) were 0.0098 µM and 0.0249 µM, respectively. The “GI Tract stability” value in data set [1] is given as 99.70%.

Usually IC50 stands for the point on the concentration scale where inhibition reaches its midpoint.
